Results from patent publication US20240384268A1, “Oligonucleotides” (Hudson Institute of Medical Research, priority 2021, published 2024).
In the oligonucleotide strings, read from the 5' end, every base follows the letter of its sugar. An asterisk marks phosphorothioate; unmarked linkages are phosphodiester. Other units and linkages are bracketed, terminal groups are in braces. A string of capitals states the bases alone. d = 2'-deoxy (DNA); m = 2'-O-methyl

How the values were obtained:
Type in all cases: cell-based
TLR8 = target: T1, TLR8 (Homo sapiens, UniProt Q9NR97); test: HEK-TLR8 NF-κB-luciferase reporter, R848 or Motolimod stimulation (potentiation or inhibition); parameters: expressed in transfected cells; host or cells: 293XLhTLR8 (HEK293); settings: HEK-TLR8; 500 nM ASO ~30 min; R848 overnight
T1 sequence (Q9NR97 27-1041): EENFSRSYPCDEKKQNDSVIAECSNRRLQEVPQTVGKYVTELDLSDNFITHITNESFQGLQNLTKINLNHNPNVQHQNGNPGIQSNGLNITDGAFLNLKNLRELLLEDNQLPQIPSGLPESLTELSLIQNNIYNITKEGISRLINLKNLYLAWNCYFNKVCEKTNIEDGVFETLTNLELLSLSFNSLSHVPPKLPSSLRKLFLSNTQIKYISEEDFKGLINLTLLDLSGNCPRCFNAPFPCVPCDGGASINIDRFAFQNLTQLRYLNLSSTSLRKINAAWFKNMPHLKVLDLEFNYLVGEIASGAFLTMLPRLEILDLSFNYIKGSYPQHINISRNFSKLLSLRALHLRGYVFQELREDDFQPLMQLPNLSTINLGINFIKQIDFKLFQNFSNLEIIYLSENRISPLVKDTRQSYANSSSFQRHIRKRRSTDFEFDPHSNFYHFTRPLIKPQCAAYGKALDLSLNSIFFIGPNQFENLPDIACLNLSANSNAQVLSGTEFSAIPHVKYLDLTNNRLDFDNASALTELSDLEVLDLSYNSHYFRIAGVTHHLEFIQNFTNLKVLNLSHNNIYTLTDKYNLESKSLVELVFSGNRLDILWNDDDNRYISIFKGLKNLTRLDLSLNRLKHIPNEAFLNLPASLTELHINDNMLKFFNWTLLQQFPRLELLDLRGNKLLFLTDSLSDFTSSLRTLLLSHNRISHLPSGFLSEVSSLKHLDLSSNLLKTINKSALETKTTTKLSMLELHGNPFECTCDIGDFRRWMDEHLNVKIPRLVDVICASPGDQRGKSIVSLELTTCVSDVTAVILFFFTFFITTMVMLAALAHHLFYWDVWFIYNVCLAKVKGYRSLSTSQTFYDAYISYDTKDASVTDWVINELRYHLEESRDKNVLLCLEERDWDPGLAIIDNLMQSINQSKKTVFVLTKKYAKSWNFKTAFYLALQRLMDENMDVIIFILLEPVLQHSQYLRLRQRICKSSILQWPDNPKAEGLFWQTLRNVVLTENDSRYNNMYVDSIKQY
Experimental: (§1) In such examples, potentiation of TLR8 activity can be identified by observation of an overall increased TLR8 response of the cell population, or a higher proportion of cells having TLR8-positive activity as compared to a negative control condition in which cells are treated with TLR8 agonist in the absence of the oligonucleotide (or in the presence of an appropriate control non-potentiating agent). In one example, 293XLhTLR8 (referred to as HEK-TLR8) cells are transfected with pNF-κB-Luc4 reporter, incubated with an oligonucleotide, and then stimulated with R848. TLR8 activity can be determined by a luciferase assay, which measures activated NF-κB by luminescence. TLR8 activity can also be analysed by measuring cytokine levels, for example by ELISA.
as §1, with “inhibition” for “potentiation”, “decreased” for “increased”, “lower” for “higher”, “positive” for “negative”, “inhibitory” for “non-potentiating”
(§2) For cGAS stimulations, cells were treated for indicated duration with ASOs, prior to transfection with ISD70 (human cells) or ISD45 (mouse cells) (the ASOs were not washed off prior to ISD transfection unless otherwise indicated). The cGAS ligands ISD45 (Stetson and Medzhitov, 2006) and ISD70 (also known as VACV-70 (Unterholzner et al., 2010)) (Table 1) were resuspended as follows: 5 1d of sense and 5 μl of antisense strands at 10 μg/μl were added to 90 μl PBS under sterile conditions, heated at 75° C. for 30 min, prior to letting cool down at room temperature and aliquoting (stock at 1 μg/1 l). The ISDs were transfected at a concentration of […] at a ratio of 1 μg:1 μl with Lipofectamine 2000 in Opti-MEM (Thermo Fisher Scientific). HEK-TLR3, HEK-TLR7 and […] were treated with indicated concentration of ASOs for 20-50 min, prior to stimulation with poly(I:C) (Invivogen), R848 (Invivogen), Motolimod (MedChemExpress) and the Class B CpG oligonucleotides ODN 2006 (synthesised by IDT and resuspended in RNase-free TE buffer [Table 1]), respectively. The TLR2/1 agonist PAM3CSK4 (Invivogen), the TLR4 agonist lipopolysaccharide (Invivogen), the Class B CpG oligonucleotides ODN 1826 (synthesised by IDT and resuspended in RNase-free TE buffer), the mouse Sting agonist DMXAA (Cayman) and the human STING agonist (compound #3 from (Raanjulu et al., 2018), referred to as GSK herein—kind gift from Cancer Therapeutics CRC, Australia) were used at indicated concentrations. Aspirin (Sigma—A2093) was resuspended in pure medium to 10 mM, filter sterilised and added to the cells at 2 mM final. All ASOs were synthesised by Integrated DNA Technologies (IDT), and resuspended in RNase-free TE buffer, pH 8.0 (Thermo Fisher Scientific). Cell viability was assessed by adding 1× fresh resazurin solution to the wells (10λ solution made up with 7 mg resazurin [Sigma—R7017] dissolved in 3.5 ml PBS, sterile filtered at […]) for 4 h, prior to reading at with a Fluostar OPTIMA (BMG LABTECH) plate-reader (fluorescence: Excitation 535 nm, Emission 590); wells with medium only and 1× resazurin were used as blanks.

cGAS = cGAS (Homo sapiens, UniProt Q8N884); test: ISD70-driven IP-10 (and IFN-β) production in THP-1 cells, ELISA; parameters: endogenous in cells; host or cells: THP-1 (undifferentiated); settings: THP-1; 2′OMe or PS oligos, 100-250 nM, pre-treatment as in figure legends; ISD70 2.5 μg/ml
Experimental: The ability of an oligonucleotide to inhibit cGAS activity can, for example, be analysed by incubating cells which express cGAS with an oligonucleotide, then stimulating said cells with a cGAS agonist (e.g., 70-bp interferon stimulating DNA or ISD70; 45-bp interferon stimulating DNA or ISD45), and analysing the overall cGAS response in the cell population, or analysing the proportion of cells having cGAS-positive activity after a defined period of time.
In such examples, inhibition of cGAS activity can be identified by observation of an overall decreased cGAS response of the cell population, or a lower proportion of cells having cGAS-positive activity as compared to positive control condition in which cells are treated with cGAS agonist in the absence of the oligonucleotide (or in the presence of an appropriate control inhibitory agent). In one example, THP-1 or HT-29 cells are transfected with ISD70 and incubated with an oligonucleotide. cGAS activity can then be determined by cytokine (e.g., IP-10 and/or IFNβ) expression (e.g., gene and/or protein expression) and/or secretion levels, such as by ELISA. A similar assay can be performed with LL171 cells transfected with ISD45. […] By way of example, cGAS enzymatic activity may be assessed in vitro using recombinant cGAS and then measuring activity thereof by way of a cGAMP ELISA.
as §2

human TLR9 = target: T2, human TLR9 (Homo sapiens, UniProt Q9NR96); test: HEK-TLR9 NF-κB-luciferase reporter, ODN2006 stimulation; settings: HEK-TLR9; 500 nM 2′OMe or PS oligos; 200 nM ODN2006
T2 construct: HA; host or cells: 293XL-hTLR9-HA (HEK293)
T2 sequence (Q9NR96 26-1032): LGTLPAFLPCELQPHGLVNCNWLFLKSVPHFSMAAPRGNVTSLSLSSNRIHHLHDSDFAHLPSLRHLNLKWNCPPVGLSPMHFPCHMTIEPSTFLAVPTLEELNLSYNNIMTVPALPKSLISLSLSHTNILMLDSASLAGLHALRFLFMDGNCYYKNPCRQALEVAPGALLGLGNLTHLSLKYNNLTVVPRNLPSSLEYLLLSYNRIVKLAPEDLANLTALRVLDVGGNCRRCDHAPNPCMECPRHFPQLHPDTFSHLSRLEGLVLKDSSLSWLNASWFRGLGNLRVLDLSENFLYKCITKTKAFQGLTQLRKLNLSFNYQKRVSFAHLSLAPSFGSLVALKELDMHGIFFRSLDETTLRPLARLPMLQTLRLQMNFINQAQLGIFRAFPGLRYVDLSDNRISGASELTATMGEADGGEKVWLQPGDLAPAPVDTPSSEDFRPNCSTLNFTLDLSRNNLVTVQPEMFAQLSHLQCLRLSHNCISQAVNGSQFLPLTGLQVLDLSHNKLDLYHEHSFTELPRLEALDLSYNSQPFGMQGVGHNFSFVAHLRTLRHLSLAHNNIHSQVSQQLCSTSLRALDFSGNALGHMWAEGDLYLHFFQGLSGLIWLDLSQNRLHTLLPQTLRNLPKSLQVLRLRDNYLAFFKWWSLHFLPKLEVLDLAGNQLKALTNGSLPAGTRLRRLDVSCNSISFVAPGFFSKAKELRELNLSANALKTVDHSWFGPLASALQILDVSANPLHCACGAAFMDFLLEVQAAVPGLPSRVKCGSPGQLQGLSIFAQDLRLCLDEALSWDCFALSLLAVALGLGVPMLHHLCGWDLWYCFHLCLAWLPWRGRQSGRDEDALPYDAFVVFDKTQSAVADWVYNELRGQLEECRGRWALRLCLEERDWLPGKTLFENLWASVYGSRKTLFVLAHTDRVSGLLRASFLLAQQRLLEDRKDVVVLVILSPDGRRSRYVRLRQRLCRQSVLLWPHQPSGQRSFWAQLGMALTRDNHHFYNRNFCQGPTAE
Experimental: In such examples, inhibition of TLR9 activity can be identified by observation of an overall decreased TLR9 response of the cell population, or a lower proportion of cells having TLR9-positive activity as compared to positive control condition in which cells are treated with TLR9 agonist in the absence of the oligonucleotide (or in the presence of an appropriate control inhibitory agent). In one example, HEK cells are transfected with TLR9 and a NF-κB reporter and incubated with an oligonucleotide and then stimulated with a TLR9 agonist. TLR9 activity can then be determined by a luciferase assay. TLR9 activity can also be analysed by measuring cytokine levels (e.g., IFN, IL-6, TNF and IL-12), for example by ELISA.
as §2
Following transfection, the cells were collected from the 6-wells and aliquoted into 96-wells, just before ASO and overnight TLR stimulation (as above described). Similarly, the LL171 cells expressing and ISRE-Luc reporter were treated overnight. The next day, the cells were lysed in 40 μl (for a 96-well plate) of 1× Glo Lysis buffer (Promega) for 10 min at room temperature. […] was then subjected to firefly luciferase assay using 40 μl of Luciferase Assay Reagent (Promega). Luminescence was quantified with a Fluostar OPTIMA (BMG LABTECH) luminometer.

Chain of cGAS (Q8N884 whole entry): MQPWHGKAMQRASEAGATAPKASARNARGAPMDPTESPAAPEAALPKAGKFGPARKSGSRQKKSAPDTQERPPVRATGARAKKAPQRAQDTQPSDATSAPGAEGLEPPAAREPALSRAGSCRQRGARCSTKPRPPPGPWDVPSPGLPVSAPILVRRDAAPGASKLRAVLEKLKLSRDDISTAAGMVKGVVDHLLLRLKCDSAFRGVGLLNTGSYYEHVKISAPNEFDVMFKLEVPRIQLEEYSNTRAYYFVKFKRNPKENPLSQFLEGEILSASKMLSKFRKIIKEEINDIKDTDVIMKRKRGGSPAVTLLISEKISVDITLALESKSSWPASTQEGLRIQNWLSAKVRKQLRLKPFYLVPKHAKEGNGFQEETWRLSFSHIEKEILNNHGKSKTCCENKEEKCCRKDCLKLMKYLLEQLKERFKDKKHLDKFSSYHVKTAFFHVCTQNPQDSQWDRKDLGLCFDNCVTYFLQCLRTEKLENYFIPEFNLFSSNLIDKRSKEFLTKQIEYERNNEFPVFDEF

Substance	inhibition of ISD70-driven IP-10 production (in words) (cGAS)	further results
mC*mU*mU*mC*mG*T*G*G*G*G*T*C*C*T*T*mU*mU*mC*mA*mC (CUUCGTGGGGTCCTTUUCAC; antisense; sugars from the 5' end m5 d10 m5, all phosphorothioate, methylation of C not given here) [[HPRT]660]	–	TLR8 potentiation of R848 sensing, 20-mer ASOs (in words) (TLR8): strong potentiator of TLR8 sensing
mGmCmGmGmUmAmUmCmCmAmUmGmUmCmCmCmAmGmGmC (GCGGUAUCCAUGUCCCAGGC; all 2'-O-methyl, backbone not given here) [fully 2′Ome modified version of C2Mut1]	strongly blunting of cGAS activation	–
mG*mC*mG*mG*mU*A*T*C*C*A*T*A*G*T*C*mU*mC*mC*mA*mU (mG*mC*mG*mG*mU*dA*dT*dC*dC*dA*dT*dA*dG*dT*dC*mU*mC*mC*mA*mU; antisense) [C2-ASO2-A]	–	inhibition of TLR9 sensing of ODN2006 (in words) (human TLR9): significantly better inhibitors of TLR9 than their parent ASO
mG*mC*mG*mG*mU*A*T*C*C*A*T*C*A*G*A*mU*mA*mU*mC*mG (mG*mC*mG*mG*mU*dA*dT*dC*dC*dA*dT*dC*dA*dG*dA*mU*mA*mU*mC*mG; antisense) [C2-ASO2-B]	significantly less inhibitory than C2-ASO2-A	–
